# Earlier results in patent US10016363B2, “Pre-spray emulsions and powders containing non-polar compounds” (VIRUN, INC., priority 2014, dated 2018).
# Details: reported HLB value of surfactant
row,Substance,H.L.B.
1,sucrose dipalmitate,7.4
2,sucrose distearate,3
3,sucrose monopalmitate,> 10
